Tests used:
[1] = tested on: BDL+LPS-induced liver impairment rat model; assay: Evaluation of NTZ efficacy on BDL+LPS-induced liver impairment in rats; type: in vivo, Sprague Dawley rats
Protocol: The objective of the study was to assess the efficacy of NTZ to prevent LPS-induced inflammation, hepatic dysfunction and brain edema in fibrotic rats that underwent BDL surgery. BDL surgery was performed on 30 Sprague Dawley rats (Janvier). After anesthesia, a median laparotomy was performed to expose the liver and duodenum. The main bile duct was identified and dissected. After that, the bile duct was ligated in two parts: a first ligation was made in the middle of the bile duct, and the second ligation was made above the entrance of the pancreatic duct. The bile duct was then cut in the middle, to avoid recanalization. Fourteen days after surgery, a blood sample was collected from the sublingual vein to measure markers of hepatic injury (serum aspartate aminotransferase (AST), total bile acids and bilirubin) to stratify the animals into treatment groups. […] Two unoperated animals were included in the study as healthy controls. […] Nine rats with BDL received phosphate buffer saline (PBS, Fisher Scientific, USA) instead of LPS to be used as BDL controls. The body weight and food intake were monitored twice a week all along the study. During the fibrosis induction phase, each animal was observed once a day for the monitoring of clinical signs. Observations include changes in the skin, fur, eyes, occurrence of secretions and excretions and autonomic activity (lachrymation, piloerection, unusual respiratory pattern). Changes in gait, posture, stereotypes (e.g. excessive grooming, repetitive circling) or bizarre behavior (self-mutilation, walking backward) are also monitored. Animals were euthanized in case of weight loss of more than 25% for more than 3 consecutive days, absence of food consumption, deterioration of the general condition or vocalization. After LPS administration, each animal was continuously observed (appearance of the animal-change in fur, skin color, the degree of activity, vigilance-response to a stimulus, opening of the eyelids, activity, gait and behaviour) during 7 hours in order to assess the degree of severity of the inflammatory response and pain. Treatment with NTZ 100 mg/kg or vehicle (1% carboxymethylcellulose ([…], Sigma-Aldrich), 0.1% tween 80 ([…], Sigma-Aldrich)) was administered by gavage 1 hour before LPS injection. For oral gavage, NTZ powder was dissolved in CMC 1%, Tween 80 0.1% at the concentration of 10 mg/ml in an amber glass bottle, homogenized with a polytron and sonicated 10 seconds at a power of 10%. NTZ was kept under magnetic stirring until the administration to the rats at 10 ml/kg. LPS solution was prepared under a microbiological safety cabinet, in order to have a sterile solution to inject to rats. The LPS solution was dissolved in phosphate buffer saline (PBS) at 0.5 μg/ml, aliquoted and frozen until the day of experiment. LPS was administered at 2 ml/kg to the rats. All surviving animals were euthanized 3 h after LPS injection for plasma and tissues analyses. At the end of the study, by plasma level of hepatic function markers and cytokines, and brain edema have been evaluated.

[2] = Open-label multiple-dose PK, safety and tolerability study of NTZ 500 mg BID for 7 days in subjects with moderate or severe hepatic impairment vs normal hepatic function; details: for Cmax: Cmax GM; for AUC0-12 GM Ratio (Impaired/Control) / AUC0-t GM Ratio (Impaired/Control) / Cmax GM Ratio (Impaired/Control): steady state; for correlation coefficient AUC0-12 vs ALT / correlation coefficient AUC0-12 vs AST / correlation coefficient AUC0-12 vs Albumin / correlation coefficient AUC0-12 vs Bilirubin / correlation coefficient AUC0-12 vs INR / correlation coefficient Cmax vs ALT / correlation coefficient Cmax vs AST / correlation coefficient Cmax vs Albumin / correlation coefficient Cmax vs Bilirubin / correlation coefficient Cmax vs INR: highest among Pearson (P) and Spearman (S), natural (NS) and log (LS) scales, marker at screening
Protocol: The study design was an open-label, nonrandomized, 2-center, multiple-dose, parallel-group study to evaluate the PK as well as the safety and tolerability of NTZ 500 mg BID administration for 7 days in males and females patients with moderate and severe hepatic impairment as compared to matched control healthy males and females patients with normal hepatic function.
The objective was to assess the effect of hepatic impairment on the PK of tizoxanide (TZ; NTZ active metabolite), following repeated oral dose administration of NTZ 500 mg BID for 7 days in subjects with moderate or severe hepatic impairment and subjects with normal hepatic function.
The following parameters used to measure the hepatic function were considered for the evaluation of the degree of hepatic impairment on NTZ PK: Child-Pugh (CP) score (*), serum albumin, serum total bilirubin, international normalized ratio (INR), aspartate aminotransferase (AST), alanine aminotransferase (ALT).
(*) For the control match healthy subject group, CP score was not calculated, and the analysis was limited to hepatic impaired patients.
Subjects were enrolled within the following groups based on their CP score at Screening: • Group 1: Normal hepatic function • Group 2: Moderate hepatic impairment (CP Class B) • Group 3: Severe hepatic impairment (CP Class C)
On Day 1, the study subjects took 500 mg NTZ (1 tablet) with 240 mL (8 fluid ounces) of water 30 minutes after the start of the standardized breakfast. No food was allowed for at least 4 h after each dose. Blood PK samples were taken at the following timepoints: pre-dose (completed in fasted state prior to the start of the standardized breakfast), T1h, T2h, T3h, T4h, T5h, T6h, T7h, T8h, T10h and T12h post-dose.
From Day 2 to Day 6, subjects received 500 mg of nitazoxanide (1 tablet) in the morning and in the evening for 6 consecutive days and on Day 7 the last dose was administered in the morning. Pre-dose blood PK sample was collected in fasted state prior to the start of the standardized breakfast each morning from Day 2 to Day 6.
On Day 7, blood PK samples were taken at the following timepoints: Pre-dose (completed in fasted state prior to the start of the standardized breakfast), T1h, T2h, T3h, T4h, T5h, T6h, T7h, T8h, T10h, T12h, T14h and T16h post-dose. PK samples at T18h, T24h and T48h post dose were taken respectively on D8 and D9.
The primary analysis was to assess the difference in the PK parameters (Cmax, AUC0-12 and AUC0-t) of total TZ after repeated oral administration of NTZ 500 mg BID for 7 days in subjects with moderate or severe hepatic impairment and subjects with normal hepatic function.
The secondary analysis was to determine the accumulation ratios on AUC0-12 and Cmax measured after a single (Day 1) and a 7-day repeated (BID) oral administrations.
The relationship between hepatic function markers (serum albumin, serum total bilirubin, INR, AST and ALT (obtained at screening)) and PK parameters (Cmax and AUC0-12) for TZ and TZ Glu (total and unbound) were investigated and evaluated using graphical and correlation techniques.
Both Pearson (supporting a linear trend) and Spearman correlation (supporting a monotonic trend) coefficients were calculated. The correlation coefficients (p) were used to measure appropriately the association for most possible relationship and only strong correlations (i.e. p≥0.75) would support further modeling.

[3] = NTZ 100 mg/kg by gavage 1 hour before LPS, blood collected 3 hours after LPS
[4] = total TZ, all groups combined, listed as Total TZ
[5] = total TZ, Moderate (CP B) vs Control
[6] = total TZ, Severe (CP C) vs Control

## CC(=O)Oc1ccccc1C(=O)Nc1ncc([N+](=O)[O-])s1 [NTZ, nitazoxanide]
[1]; NTZ 100 mg/kg by gavage 1 hour before LPS, 3 h after LPS, p=0.006
  brain edema: change of brain water content compared to the BDL condition: −111%
[1]; [3]
  decrease of circulating IL-1β: 91%
  decrease of circulating IL-6: 93%
  decrease of circulating TNFα: 94%
[1]; NTZ 100 mg/kg by gavage 1 hour before LPS, euthanized 3 h after LPS, data not shown
  percentage of liver fibrosis: Neither LPS nor NTZ treatment affected the percentage of liver fibrosis
[1]; NTZ 100 mg/kg by gavage 1 hour before LPS, plasma 3 h after LPS
  LPS-induced alteration of plasma total bile acids, total bilirubin, albumin and GGT: tended to reduce the LPS-induced alteration of these markers
[1]; NTZ 100 mg/kg by gavage 1 hour before LPS, plasma 3 h after LPS, p=0.007
  reduction of plasma urea (LPS-induced renal impairment): 84%
[1]; NTZ 100 mg/kg by gavage 1 hour before LPS, plasma 3 h after LPS, p=0.01
  reduction of plasma ASAT compared to the ACLF-Veh condition: 100%
[1]; NTZ 100 mg/kg by gavage 1 hour before LPS, plasma 3 h after LPS, p=0.03
  reduction of plasma ALAT compared to the ACLF-Veh condition: 101%
[1]; NTZ 100 mg/kg, conclusions
  LPS-induced rise in ALT, change with NTZ: −101%
  LPS-induced rise in AST, change with NTZ: −100%
  LPS-induced rise in urea, change with NTZ: −84%
  brain edema: water content (in words): totally restored the water content to the level of BDL and healthy rats
[2]; NTZ 500 mg BID for 7 days
  safety in patients with hepatic impairment: safe

## O=C(Nc1ncc([N+](=O)[O-])s1)c1ccccc1O [TZ, tizoxanide]
[2]; Day 1 and Day 7, regardless of the group
  fraction of the dose recovered in urine over 12 h: less than 1%
[2]; both, human, blood, oral, 500 mg
  Tmax: 3.5 to 5 h
[2]; both, human, blood, oral, 500 mg, AUC0-12 GM, total TZ, all groups combined (Total), DAY 1, single 500 mg NTZ dose
  AUC(0-t): 115 µM·h
[2]; both, human, blood, oral, 500 mg, AUC0-12 GM, total TZ, all groups combined (Total), DAY 7, NTZ 500 mg BID
  AUC(0-t): 183 µM·h
[2]; both, human, blood, oral, 500 mg, AUC0-12 GM, total TZ, steady state after NTZ 500 mg BID 7 days, Moderate (CP B)
  AUC(0-t): 145 µM·h
[2]; both, human, blood, oral, 500 mg, AUC0-12 GM, total TZ, steady state after NTZ 500 mg BID 7 days, Severe (CP C)
  AUC(0-t): 264 µM·h
[2]; both, human, blood, oral, 500 mg, AUC0-t GM, total TZ, steady state after NTZ 500 mg BID 7 days, Control group (normal hepatic function)
  AUC(0-t): 165 µM·h
[2]; both, human, blood, oral, 500 mg, AUC0-t GM, total TZ, steady state after NTZ 500 mg BID 7 days, Moderate (CP B)
  AUC(0-t): 150 µM·h
[2]; both, human, blood, oral, 500 mg, AUC0-t GM, total TZ, steady state after NTZ 500 mg BID 7 days, Severe (CP C)
  AUC(0-t): 297 µM·h
[2]; both, human, blood, oral, 500 mg, total TZ, all groups combined (Total), DAY 1, single 500 mg NTZ dose
  Cmax: 24.8 µM
[2]; both, human, blood, oral, 500 mg, total TZ, all groups combined (Total), DAY 7, NTZ 500 mg BID
  Cmax: 34.7 µM
[2]; both, human, blood, oral, 500 mg, total TZ, steady state after NTZ 500 mg BID 7 days, Control group (normal hepatic function)
  Cmax: 35.3 µM
[2]; both, human, blood, oral, 500 mg, total TZ, steady state after NTZ 500 mg BID 7 days, Moderate (CP B)
  Cmax: 28.2 µM
[2]; both, human, blood, oral, 500 mg, total TZ, steady state after NTZ 500 mg BID 7 days, Severe (CP C)
  Cmax: 42 µM
[2]; both, human, blood, oral, 500 mg, GM t1/2, Day 1
  half-life: ~2 h
[2]; both, human, blood, oral, 500 mg, GM t1/2, Day 7, severe impairment group
  half-life: 4 h
[2]; both, human, in vivo, oral, 500 mg, AUC0-12 GM, total TZ, steady state after NTZ 500 mg BID 7 days, Control group (normal hepatic function)
  AUC(0-t): 162 µM·h
[2]; both, human, urine, oral, 500 mg
  CL renal: 0.0333 to 0.5 mL/min
[2]; [4]
  AUC0-12 accumulation GM Ratio (Day 7/Day 1): 1.5980
  Cmax accumulation GM Ratio (Day 7/Day 1): 1.3993
[2]; total TZ, all groups combined, listed as total TZ
  Cmax accumulation GM Ratio (Day 7/Day 1): around 1.4
[2]; [5]
  AUC0-12 GM Ratio (Impaired/Control): 0.8960
  AUC0-t GM Ratio (Impaired/Control): 0.9064
  Cmax GM Ratio (Impaired/Control): 0.8008
[2]; [6]
  AUC0-12 GM Ratio (Impaired/Control): 1.6353
  AUC0-t GM Ratio (Impaired/Control): 1.7940
[2]; total TZ, Severe (CP C) vs Control, listed as Total TZ
  Cmax GM Ratio (Impaired/Control): 1.1921
[2]; total TZ, Severe (CP C) vs Control, listed as total TZ
  Cmax GM Ratio (Impaired/Control): 1.19
[2]; total analyte
  correlation coefficient AUC0-12 vs ALT: P (LS): −0.07
  correlation coefficient AUC0-12 vs AST: P (NS): 0.17
  correlation coefficient AUC0-12 vs Albumin: P (NS): −0.4
  correlation coefficient AUC0-12 vs Bilirubin: P (NS): 0.43
  correlation coefficient AUC0-12 vs INR: P (NS): 0.46
  correlation coefficient Cmax vs ALT: P (LS): −0.17
  correlation coefficient Cmax vs AST: P (LS): −0.05
  correlation coefficient Cmax vs Albumin: P (NS): −0.25
  correlation coefficient Cmax vs Bilirubin: P (NS): 0.47
  correlation coefficient Cmax vs INR: P (NS): 0.46
[2]; unbound (u-) analyte
  correlation coefficient AUC0-12 vs ALT: P (LS): −0.06
  correlation coefficient AUC0-12 vs AST: P (NS): 0.15
  correlation coefficient AUC0-12 vs Albumin: P (NS): −0.37
  correlation coefficient AUC0-12 vs Bilirubin: P (NS): 0.47
  correlation coefficient AUC0-12 vs INR: P (NS): 0.5
  correlation coefficient Cmax vs ALT: P (LS): −0.15
  correlation coefficient Cmax vs AST: S (NS): −0.09
  correlation coefficient Cmax vs Albumin: P (NS): −0.24
  correlation coefficient Cmax vs INR: P (NS): 0.49
[2]; unbound (u-) analyte, listed as u-Tizoxanide
  correlation coefficient Cmax vs Bilirubin: P (NS): 0.51
[2]; unbound (u-) analyte, listed as unbound TZ
  correlation coefficient Cmax vs Bilirubin: 0.51

From patent US20260124182A1, “NITAZOXANIDE FOR THE TREATMENT OF HEPATIC IMPAIRMENT” (GENFIT, priority 2022, published 2026)
